Experimental data as given in patent US11786517B2, “Methods of treatment using a JAK inhibitor compound” (THERAVANCE BIOPHARMA R&D IP, LLC, priority 2017, dated 2023).

What was measured:
[1] = Ocular pharmacokinetics in rabbit eyes; format: in vivo, New Zealand white rabbits; conditions: intravitreal injection, listed as compound of the invention
Procedure: The objective of this assay was to determine the pharmacokinetics of the test compound in rabbit ocular tissues.
The compound of the invention, 5-ethyl-2-fluoro-4-(3-(5-(1-methylpiperidin-4-yl)-4,5,6,7-tetrahydro-1H-imidazo[4,5-c]pyridin-2-yl)-1H-indazol-6-yl)phenol (1) was dissolved in either 10% 2-hydroxypropyl-β-cyclodextrin to attain a target concentration of 4 mg/mL or in purified water to attain a target concentration of 1 mg/mL. Bilateral intravitreal injection (50 μL/eye) of the solution of test compound was administered to New Zealand white rabbits in two dose groups, 200 μg/eye and 50 μg/eye, respectively, for the cyclodextrin and water vehicle formulations, respectively. The test compound concentration was measured in ocular tissues: vitreous, aqueous, retina/choroid and iris-ciliary body at pre-determined time points post injection (30 min, 4 h, 1 d, 3 d, 7 d, 14 d). Two rabbits (four eyes) were dosed for each time point.
A suspension formulation was prepared by combining crystalline compound 1 of Example 1 with 0.5% hydroxypropyl methylcellulose (HPMC E5)+0.02% Tween 80 to attain a target concentration of 10 mg/mL. Bilateral intravitreal injection (50 μL/eye) of the suspension of test compound was administered to New Zealand white rabbits (500 μg/eye). The test compound concentration was measured in ocular tissues as in the […] at 30 min, 2 wks, 4 wks, 6 wks, and 8 wks post injection. […] The behavior is consistent with the solubility of compound 1 in the vehicle and the ocular pharmacokinetic behavior in the solution formulation. The drug concentration in plasma was measured and found to be at least 3 orders of magnitude lower than the concentration in vitreous tissue.

[2] = test system: IL-6 induced pSTAT3 in rat retina/choroid; assay: Pharmacodynamic assay: inhibition of IL6-induced pSTAT3 in rats; format: in vivo, Female Lewis rats; conditions: 3 day pre-treatment
Procedure: The ability of a single intravitreal administration of test compound to inhibit IL-6 induced pSTAT3 was measured in rat retina/choroid homogenates.
Suspension formulations were prepared by combining crystalline compound 1 of Example 1 with 0.5% hydroxypropyl methylcellulose (HPMC E5 LV), 0.02% Tween 80, and 0.9% sodium chloride in purified water to attain target concentrations of 3 mg/mL and 10 mg/mL.
Female Lewis rats were intravitreally (IVT) dosed (5 μL per eye) with the suspension formulations or with the drug vehicle. Three days later, IL-6 (Peprotech; 0.1 mg/mL; 5 μL per eye) or vehicle was intravitreally administered to induce pSTAT3. Ocular tissues were dissected one hour after the second IVT injection with IL-6. The retina/choroid tissues were homogenized and pSTAT3 levels were measured using an ELISA (Cell Signaling Technology). The percent inhibition of IL-6-induced pSTAT3 was calculated in comparison to the vehicle/vehicle and vehicle/IL-6 groups. Inhibition of greater than 100% reflects a reduction of pSTAT3 levels to below those observed in the vehicle/vehicle group.

airway neutrophils = assay: Murine model of LPS/G-CSF/IL-6/IFNγ cocktail-induced airway neutrophilic inflammation; format: in vivo, Balb/C mice; conditions: mouse, 1.0 mg/mL 50 μL oropharyngeal aspiration, BALF at twenty-four hours
Procedure: Airway neutrophilia is a hallmark of a range of respiratory disease in humans. Compound 1 was tested in a model of neutrophilic airway inflammation using a LPS/G-CSF/IL-6/IFNγ cocktail to induce airway neutrophilia.
Seven- to nine-week old male Balb/C (wildtype) mice from Jackson Laboratory were used in the study. On the day of study, animals were lightly anesthetized with isoflurane and administered either vehicle or test compound (1.0 mg/mL, 50 μL total volume over several breaths) via oropharyngeal aspiration. Animals were placed in lateral recumbency post dose and monitored for full recovery from anesthesia before being returned to their home cage. One hour later, animals were once again briefly anesthetized and challenged with either vehicle or LPS; 0.01 mg/kg/G-CSF; 5 μg/IL-6; 5 μg/IFNγ; 5 μg (100 μL total volume) via oropharyngeal aspiration (OA). Twenty-four hours after the LPS/G-CSF/IL-6/IFNγ cocktail administration, bronchoalveolar lavage fluid (BALF) was collected and neutrophils were counted.

[3] = test system: IFNγ induced CXCL10 secretion; assay: Inhibition of IFNγ induced CXCL10 in human 3D airway cultures; format: cell-based; conditions: at μM (so in the source), 8 days, ±STDV
Procedure: (§1) EpiAirway tissue cultures were obtained from Mattek (AIR-100). Cultures were derived from asthmatic donors. In a cell culture insert, human derived tracheal/bronchial epithelial cells were grown and differentiated on a porous membrane support, allowing an air-liquid interface with warmed culture medium below the cells and a gaseous test atmosphere above. Tissues were cultured in maintenance media (Mattek, AIR-100-MM) in a 37° C., 5% CO2 humidified incubator. Four donors were tested. On Day 0, tissue cultures were treated with test compounds at 10 μM, 1 μM and/or 0.1 μM. Compounds were diluted in dimethyl sulfoxide (DMSO, Sigma) to a final concentration of 0.1%. DMSO at 0.1% was used as a vehicle control. Test compounds were incubated with cultures for 1 hour at 37° C., 5% CO2, followed by the addition of pre-warmed media containing IFNγ (R&D Systems) or IL-27 (R&D Systems) at a final concentration at 100 ng/ml. Tissue cultures were maintained for 8 days. Media was replaced every 2 days with fresh media containing compounds and IFNγ or IL-27. On Day 8, tissue cultures and supernatants were collected for analysis. […] Data is expressed as % Inhibition+/−standard deviation (±STDV). Percent inhibition was determined by compound inhibitory potency against IFNγ or IL-27 induced CXCL10 or CXCL9 secretion compared to vehicle treated cells. […]

[4] = test system: IL-27 induced CXCL10 secretion; assay: Inhibition of IL-27 induced CXCL10 in human 3D airway cultures; format: cell-based; conditions: 192 h, at 0.1 μM (first of two values so printed), 8 days, ±STDV
Procedure: as §1

CCc1cc(O)c(F)cc1-c1ccc2c(-c3nc4c([nH]3)CCN(C3CCN(C)CC3)C4)n[nH]c2c1 [compound 1, 5-ethyl-2-fluoro-4-(3-(5-(1-methylpiperidin-4-yl)-4,5,6,7-tetrahydro-1H-imidazo[4,5-c]pyridin-2-yl)-1H-indazol-6-yl)phenol]
drug concentration in plasma lower than concentration in vitreous tissue [1]: at least three orders of magnitude lower
inhibition of IL-6-induced pSTAT3 ([2]; 15 μg intravitreal suspension): 33%
inhibition of IL-6-induced pSTAT3 ([2]; 50 μg intravitreal suspension): 109%
reduction of the airway neutrophils compared to vehicle treated mice (airway neutrophils): 84%
inhibition of IFNγ induced CXCL10 secretion [3]: 71%±19
inhibition at 0.1 µM [4]: 98%
